US5342771A, “Functionalized imidazolinone haptens and protein conjugates thereof useful in assays for the detection of imidazolinone herbicides” (American Cyanamid Company, priority 1993, dated 1994)

target: antibody; test: Cross-reactivity of the antibody by ELISA (competitive binding with enzyme conjugate); set-up: species or system New Zealand white rabbits; details: concentration giving 50% reduction of absorbance caused by enzyme conjugate binding to a known amount of antibody
Description: The antigen produced in example 2 is dissolved into 0.1M sodium phosphate buffer solution containing 0.14% sodium chloride at pH 7.6 (PBS 7.6). One milliliter of the antigen solution, 0.5 mg antigen per milliliter, is mixed with one milliliter of Freund's complete adjuvant and emulsified. The emulsion is injected peri-lymph nodal into New Zealand white rabbits at 0.5 mg/rabbit. Three weeks after the initial immunization, 0.25 mg of the antigen in 1 mL of PBS 7.6 is emulsified with 1 mL of Freund's incomplete adjuvant and injected into the rabbits intramuscularly as boosters. The booster injections are introduced every three weeks into the rabbits. After the second boost, blood samples are collected through the ear vein ten days post injection. Serum containing the antibody is harvested from the blood samples and stored.
The antibody and enzyme conjugate prepared above are used to establish an ELISA method for the determination of the presence and concentration of imidazolinones in soil, water or plant samples. A Costar 96 well polystyrene EIA treated flat bottom microwell plate is coated with a constant amount of the antibody in a 0.1N Na2 CO3 buffer. The antibody coated wells are incubated overnight at 4° C., washed with PBS 7.6 buffer containing 0.01% TWEEN® 20, blocked with 5% milk (nonfat dry milk) in PBS 7.6 and incubated 30 minutes at room temperature. Standard solutions having concentrations of imazaquin from 0 to 25 ng per mL are added to the blocked wells followed by the addition of the aforementioned enzyme conjugate.
The wells are incubated for thirty minutes, washed and then a freshly prepared tetramethylbenzidine/hydrogen peroxide substrate solution is added to each well. After ten minutes, readings are taken for each well at 650 nm using a microwell reader.
The cross reactivity of the antibody with imidazolinone compounds, imidazolinone metabolites and other commonly found agrochemicals is determined using the procedure of example 5. The concentration of a compound which produces a 50% reduction of absorbance caused by the enzyme conjugate binding to a known amount of antibody is defined as the I50 value (50% inhibition concentration). The I50 values from the cross-reactivity studies are in Table III.

Q: With `CCc1cnc(C2=NC(C)(C(C)C)C(=O)N2)c(C(=O)O)c1` (centres unmarked) [Imazethapyr, 5-ethyl-2-(4-isopropyl-4-methyl-5-oxo-2-imidazolin-2-yl)nicotinic acid] as the molecule, how does the “I50 (50% inhibition concentration)” value read?
A: Its value is 18.5 ng/mL.

Q: For `CCCCOCN(C(=O)CCl)c1c(CC)cccc1CC` [Butachlor], which “I50 (50% inhibition concentration)” value is on record?
A: Its value is > 100,000 ng/mL.

Q: Which “I50 (50% inhibition concentration)” value does the source give for `CC(C)C(C)(C(N)=O)N1C(=O)c2cc3ccccc3nc2C1=O` (stereo not drawn) [1,3-Dihydro-α-isopropyl-α-methyl-1,3-dioxo-2 --H-pyrrolo[3,4- -b]quinoline-2-acetamide] here?
A: Its value is > 5,000 ng/mL.

Q: For `COC(=O)c1nc2ccccc2cc1C(=O)NC(C)(C(N)=O)C(C)C` (centres unmarked) [Methyl 3-[(1-carbamoyl-1,2-dimethylpropyl)carbamoyl]-2-quinolinecarboxylate], which “I50 (50% inhibition concentration)” value is on record?
A: Its value is > 5,000 ng/mL.

Q: For `CC(C)C(C)(NC(=O)c1cc2ccccc2nc1C(=O)O)C(N)=O` (centres unmarked) [3-[(1-Carbamoyl-1,2-dimethylpropyl)carbamoyl]quinaldic acid], which “I50 (50% inhibition concentration)” value is on record?
A: Its value is > 5,000 ng/mL.

Q: Which “I50 (50% inhibition concentration)” value does the source give for `CCC(CC)Nc1c([N+](=O)[O-])cc(C)c(C)c1[N+](=O)[O-]` [Pendimethalin] here?
A: The value was > 100,000 ng/mL.

Q: With `CC(C)C(C)(NC(=O)c1nc2ccccc2cc1C(=O)O)C(N)=O` (centres unmarked) [2-[(1-Carbamoyl-1,2-dimethylpropyl)carbamoyl]-3-quinolinecarboxylic acid] as the molecule, how does the “I50 (50% inhibition concentration)” value read?
A: The value was > 5,000 ng/mL.

Q: For `CC(C)C1(C)N=C(c2ncccc2C(=O)O)NC1=O` (centres unmarked) [Imazapyr, 2-(4-isopropyl-4-methyl-5-oxo-2-imidazolin-2-yl)nicotinic acid], which “I50 (50% inhibition concentration)” value is on record?
A: Its value is 149.0 ng/mL.

Q: How did the “I50 (50% inhibition concentration)” value turn out when `COc1nc(C)nc(NC(=O)NS(=O)(=O)c2ccccc2Cl)n1` [Chlorsulfuron] was run?
A: The value was > 100,000 ng/mL.

Q: Which “I50 (50% inhibition concentration)” value does the source give for “mixture of methyl 6-(4-isopropyl-4-methyl-5-oxo-2-imidazolin-2-yl)-m-toluate and methyl 2-(4-isopropyl-4-methyl-5-oxo-2-imidazolin-2-yl)-p-toluate [Imazamethabenz]” here?
A: The value was 33.2 ng/mL.

Q: How did the “I50 (50% inhibition concentration)” value turn out when `C[n+]1ccc(-c2cc[n+](C)cc2)cc1` [Paraquat] was run?
A: The value was > 100,000 ng/mL.

Q: How did the “I50 (50% inhibition concentration)” value turn out when `CCc1cccc(CC)c1N(COC)C(=O)CCl` [Alachlor] was run?
A: Its value is > 100,000 ng/mL.

Q: With `CC(C)C1(C)N=C(c2nc3ccccc3cc2C(=O)O)NC1=O` (centres unmarked) [Imazaquin, 2-(4-isopropyl-4-methyl-5-oxo-2-imidazolin-2-yl)-3-quinolinecarboxylic acid] as the molecule, how does the “I50 (50% inhibition concentration)” value read?
A: The value was 10.7 ng/mL.

Q: Which “I50 (50% inhibition concentration)” value does the source give for `CCNc1nc(Cl)nc(NC(C)C)n1` [Atrazine] here?
A: Its value is > 100,000 ng/mL.
